In PubChem BioAssay AID1996:
Values after ≈ are worked out from the molar mass of the structure shown.

Conditions: buffer; pH 7.4; 200.0 µM

Compound	solubility kinetic
FC(F)Oc1ccc(NC(=S)NCc2nc3ccccc3[nH]2)cc1	> 52.3 µg/mL
CC(=O)NCCc1c(C)n(Cc2ccccc2)c2ccccc12	> 46 µg/mL
Cc1cc(=O)oc2cc(NC(=O)c3ccc(OC(F)F)cc3)ccc12	1 µg/mL (≈ 2.9 µM)
Cc1nc(N2CCCCCC2)c2ccccc2n1.Cl	> 41.7 µg/mL
Cc1cc(C)c(C(=O)/C=C/c2cccs2)c(=O)[nH]1	34.4 µg/mL (≈ 133 µM)
CCN(C(=O)COC(=O)Cc1c[nH]c2ccccc12)C1CCS(=O)(=O)C1 (stereo unspecified)	> 56.8 µg/mL
Cc1ccc(-c2ccc(C(=O)NCCCNC(=O)c3cnccn3)o2)cc1Cl	6.3 µg/mL (≈ 15.8 µM)
COc1ccc(C)cc1NC(=O)COC(=O)C1COc2ccccc2O1 (stereo unspecified)	> 53.6 µg/mL
CC(=O)N1NC(=Nc2ccccc2)SC1(C)C	> 37.4 µg/mL
CC(=O)c1cccc(NC(=O)c2cc(-c3cccs3)on2)c1	< 0.3 µg/mL
CCCOc1ccccc1/C=C(\C#N)C(=O)Nc1cccnc1	6.8 µg/mL (≈ 22.1 µM)
CCc1nc(N2CCN(C(C)=O)CC2)c2c3c(sc2n1)CCCC3	> 51.7 µg/mL
O=C(CCOc1ccccc1)Nc1ccccc1F	37.4 µg/mL (≈ 144 µM)
CC(O)c1nc2ccccc2n1C(C)c1ccccc1 (stereo unspecified)	> 40 µg/mL
Cc1ccc(S(=O)(=O)NC(=O)Nc2c(C)cccc2C)cc1	33.6 µg/mL (≈ 106 µM)
CCc1ccc(N(CC)C(=O)c2cn(C)c(=O)c3ccccc23)cc1	> 50.2 µg/mL
O=C(CCc1nc(-c2ccc(F)cc2)no1)NCc1ccccc1CN1CCOCC1	> 63.7 µg/mL
COc1ccc(C(=O)OCC(=O)NCC2CCCO2)c(F)c1 (stereo unspecified)	> 46.7 µg/mL
Cl.O=S(=O)(c1ccc(F)cc1)N1CCCNCC1	> 44.2 µg/mL
Nn1c(SCC(=O)Nc2ccc3c(c2)OCO3)nncc1=O	> 48.2 µg/mL
NC(=O)c1ccccc1OCC(=O)Nc1cccnc1Cl	> 45.9 µg/mL
CCC(=O)c1ccc(OC(=O)c2cnccn2)cc1	> 38.4 µg/mL
Nc1ccc2nc(SCc3ccccc3F)sc2c1	16 µg/mL (≈ 55.1 µM)
CN(CC(=O)Nc1ccc(N2CCOCC2)cc1)C(=O)c1ccc(CS(C)(=O)=O)cc1	> 66.8 µg/mL
CCCCn1cc2c(c1-c1cccc(C)c1)c(=O)n(C)c(=O)n2C	14 µg/mL (≈ 43 µM)

Compound	solubility kinetic
COC(=O)c1c(C)noc1-c1ccc(Cl)cc1	1.6 µg/mL (≈ 6.36 µM)
COc1cc(N2CCOCC2)ccc1C=C(C#N)C#N	0.7 µg/mL (≈ 2.6 µM)
Cc1cnc(C(=O)NCC(c2ccccc2)c2ccccc2)cn1	0.8 µg/mL (≈ 2.52 µM)
Nc1cc(Nc2ccccc2)ccn1.O=P(O)(O)O	> 42.5 µg/mL
Cc1ccccc1-c1ccc(/C=C2/SC(N3CCOCC3)=NC2=O)o1	1.4 µg/mL (≈ 3.95 µM)
CCn1c(SCc2ccc(F)cc2)nc2ccccc2c1=O	0.5 µg/mL (≈ 1.59 µM)
Cc1cc(C(=O)O/N=C(\N)c2ccncc2)ccc1[N+](=O)[O-]	25.1 µg/mL (≈ 83.6 µM)
O=C(CCSCc1ccccc1F)NCCc1ccccc1	17.8 µg/mL (≈ 56.1 µM)
CCOC(=O)C1Nc2ccc(C(=O)O)cc2C2C=CCC12 (stereo unspecified)	> 43.1 µg/mL
O=C(Nc1ccc(S(=O)(=O)N2CCCCC2)cc1)C1CCCCC1	13.5 µg/mL (≈ 38.5 µM)
CCn1c(O)c(C=Nc2ccccc2)sc1=O	0.5 µg/mL (≈ 2.01 µM)
O=C(Nc1ncc([N+](=O)[O-])s1)c1ccc2c(c1)OCO2	24.9 µg/mL (≈ 84.9 µM)
Cc1ccc(CNC(=O)CCCc2ccccc2)cc1	9.2 µg/mL (≈ 34.4 µM)
CC(=O)N1CCN(c2nc(N)c(C#N)c(CC#N)c2C#N)CC1	> 46.4 µg/mL
COc1ccc(S(=O)(=O)NC2CC(C)(C)NC(C)(C)C2)cc1	> 49 µg/mL
CCNS(=O)(=O)c1ccc(NC(=O)Nc2ccc3c(c2)OCO3)cc1	12.1 µg/mL (≈ 33.3 µM)
Cc1ccc(NC(=O)COC(=O)C2=NNC(=O)CC2)c(Br)c1	> 55.2 µg/mL
CCOc1ccc(N2C(=O)S/C(=C\c3ccc(O)c(OCC)c3)C2=O)cc1	< 0.8 µg/mL
COc1ccc(C2=COc3ccccc3C(=O)N2)cc1	11.4 µg/mL (≈ 42.7 µM)
COc1ccc(-c2nc3ccccn3c2Cl)cc1	4.4 µg/mL (≈ 17 µM)
NC(=O)Cn1cc(C=C2C(=O)NC(=O)NC2=O)c2ccccc21	11.3 µg/mL (≈ 36.2 µM)
Cc1cccc(NC(=O)C(C)n2cc([N+](=O)[O-])cn2)n1 (stereo unspecified)	> 41.3 µg/mL
Cc1cccc(CC(=O)N2CCN(C(=O)c3ccco3)CC2)c1	> 46.9 µg/mL
Cl.O=[N+]([O-])c1ccccc1OCC(O)CNC1CCCC1 (stereo unspecified)	46.2 µg/mL
COCC(C)NC(=O)c1ccc2c(c1)S(=O)(=O)c1ccccc1C2=O (stereo unspecified)	> 53.9 µg/mL

Compound	solubility kinetic
CN1CCN(c2ccc(Cl)cc2N)CC1	30.6 µg/mL (≈ 136 µM)
CN(Cc1cccnc1)C(=O)CCCc1c[nH]c2ccccc12	44.5 µg/mL (≈ 145 µM)
COc1ccc(C2SCC(=O)N2Cc2ccccc2)cc1 (stereo unspecified)	44.6 µg/mL (≈ 149 µM)
CCOc1cc(CNCc2ccccn2)cc(Cl)c1OCC.Cl	35.5 µg/mL
Cn1c(=O)n(C)c2cc(NC(=O)c3ccc(F)cc3)ccc21	15.5 µg/mL (≈ 51.8 µM)
Clc1cccc(C2Nc3cccc4cccc(c34)N2)c1Cl	0.5 µg/mL (≈ 1.59 µM)
Cc1cc(-c2onc(C)c2C(N)=O)no1	> 31.1 µg/mL
C[C@H](NS(=O)(=O)c1ccccc1)C(=O)N1CCN(C(c2ccccc2)c2ccccc2)CC1	16.2 µg/mL (≈ 34.9 µM)
COc1ccc(CNC(=S)Nc2ccc(Br)cc2)cc1	< 0.4 µg/mL
Cc1ccc(S(=O)(=O)n2cc(C=O)c3ccccc32)cc1	< 0.6 µg/mL
O=C(NCCNC(=O)c1ccc(Cl)cc1Cl)c1ccco1	30.7 µg/mL (≈ 93.8 µM)
CC1=NN(C(=O)c2ccccc2C)C(O)(c2ccc(Cl)cc2)C1 (stereo unspecified)	> 49.3 µg/mL
O=C(O)c1cnc2[nH]c3ccccc3n2c1=O	> 34.4 µg/mL
Clc1ccc(CNc2ncccn2)cc1	24.4 µg/mL (≈ 111 µM)
Cc1nnc(SCc2nnc(-c3cccs3)o2)n1C	> 44 µg/mL
CNC(=O)CN1C(=O)NC(Cc2c[nH]c3ccccc23)C1=O (stereo unspecified)	> 45 µg/mL
O=C1C2C3CCC(C3)C2C(=O)N1c1ccc2ccccc2c1 (stereo unspecified)	5 µg/mL (≈ 17.2 µM)
O=c1oc2ccc([N+](=O)[O-])cc2c(N2CCOCC2)c1[N+](=O)[O-]	> 48.2 µg/mL
O=S(=O)(c1ccc(F)c(F)c1F)N1CCN(c2ncnc3sccc23)CC1	2.5 µg/mL (≈ 6.03 µM)
CC(OC(=O)c1cccnc1Cl)C(=O)Nc1ccc2c(c1)OCO2 (stereo unspecified)	> 52.3 µg/mL
O=C1NCCCC1C(=O)N1CCCCC1 (stereo unspecified)	> 31.5 µg/mL
O=C(COC(=O)COc1ccc(Cl)cc1Cl)NC1CCS(=O)(=O)C1 (stereo unspecified)	> 59.4 µg/mL
CC(=O)NNc1cc(C)nc(N)n1	> 27.2 µg/mL
NC(=S)Nc1ccccc1Br	> 34.7 µg/mL
CCc1ccc(C(=O)OCC(=O)NCC(F)(F)F)cc1	17.9 µg/mL (≈ 61.9 µM)

Compound	solubility kinetic
CNS(=O)(=O)c1cc2c3c(cccc3c1)C(=O)NC2=O	6.3 µg/mL (≈ 21.7 µM)
CCCCC(=O)N(CCOC)c1nnc(-c2cccnc2)s1	> 48.1 µg/mL
Cc1cccc(C)c1NC(=O)COC(=O)c1cc(S(=O)(=O)Nc2ccc(Cl)cc2)ccc1O	11.5 µg/mL (≈ 23.5 µM)
Cc1nsc(Nc2ccccc2)c1C#N	7.7 µg/mL (≈ 35.8 µM)
N#Cc1cnc(Oc2ccc(Cl)cc2)nc1N	4.3 µg/mL (≈ 17.4 µM)
Cc1cc(OCC(=O)N(C)C2CCCCC2)cc(C)c1Cl	15.4 µg/mL (≈ 49.7 µM)
O=C1CNC(=S)N1Cc1ccccc1Cl	> 36.1 µg/mL
Cc1cc(C)nc(SCC(N)=O)n1	28.5 µg/mL (≈ 144 µM)
CCOC(=O)Nc1ccc2c(c1)N(C(=O)CN)c1ccccc1CC2	36.6 µg/mL (≈ 108 µM)
COc1ccccc1NC(=O)c1ccc2c(c1)OCO2	39.7 µg/mL (≈ 146 µM)
CC(C)=CC(=O)N1CC[C@@H](N2CCN(c3ccccc3F)CC2)[C@H](O)C1	> 54.2 µg/mL
CCCN(CCC)Cc1cc(=O)oc2cc3c(cc12)CCC3	< 0.6 µg/mL
COc1ccc(C(=O)COc2ncnc3cc(Cl)ccc23)cc1	< 0.4 µg/mL
C/C(=C\c1ccccc1F)C(=O)c1c(C)cc(C)[nH]c1=O	> 42.8 µg/mL
Cc1nc(S(=O)(=O)Nc2ccccc2C(=O)NCC2CC2)cn1C	> 52.3 µg/mL
COCCNC(=S)c1ccc(Br)cc1	34.5 µg/mL (≈ 126 µM)
CC(CCN1CCN(CCO)CC1)c1ccccc1 (stereo unspecified)	23.1 µg/mL (≈ 88 µM)
NC(=O)NC(=O)CSc1ccccc1	> 31.5 µg/mL
COc1cccc(NC(=O)COC(=O)Cc2ccc(Cl)cc2)c1	> 50.1 µg/mL
Cc1cc(=O)n(-c2ccc(Cl)cc2)c(=O)[nH]1	> 35.5 µg/mL
COCCN(C(=S)Nc1c(C)cccc1C)C(C)c1ccco1 (stereo unspecified)	47.1 µg/mL (≈ 142 µM)
Cn1cccc1C(=O)OCC(=O)NCCc1ccccc1	> 42.9 µg/mL
O=C(Nc1cccc(Br)c1)C1CCCC1	> 40.2 µg/mL
O=C(Nc1ccc(Cl)cc1N1CCOCC1)C1CC1	> 42.1 µg/mL
COC(=O)CSc1nc(C)c2c(n1)CCCC2	37.6 µg/mL (≈ 149 µM)

Compound	solubility kinetic
O=C(NCCCn1ccnc1)C(=O)NC1CCCCC1	> 41.8 µg/mL
COc1ccccc1NC(=O)c1ccc2c(=O)n3c(nc2c1)CCC3	13.2 µg/mL (≈ 39.4 µM)
Cc1cc(C)n(/C(=C\N(C)C)C(=O)c2cccc([N+](=O)[O-])c2)n1	> 47.2 µg/mL
COC(=O)c1cnc[nH]1	> 18.9 µg/mL
CCOC(=O)/C(C#N)=C/Nc1ccsc1C(C)=O	3.5 µg/mL (≈ 13.2 µM)
CC(C#N)(Cc1ccccc1)Nc1ccccc1 (stereo unspecified)	18.8 µg/mL (≈ 79.6 µM)
Cc1[nH]c(C)c(C(=O)/C=C/c2ccc([N+](=O)[O-])cc2)c1C	2.9 µg/mL (≈ 10.2 µM)
O=C1NC2=C(C(=O)OC2)C(c2ccc(OC(F)(F)F)cc2)N1 (stereo unspecified)	> 47.1 µg/mL
CC(NC(=O)c1ccccc1Cl)C(=O)OCc1cn2cc(Cl)ccc2n1 (stereo unspecified)	> 58.8 µg/mL
CCCCOc1ccc(N2CC(C(=O)NCc3ccco3)CC2=O)cc1 (stereo unspecified)	12.6 µg/mL (≈ 35.4 µM)
On1c(-c2ccccc2)nc2ncccc21	> 31.7 µg/mL
O=C(NC1C/C(=N/O)c2cc3c(cc21)OCO3)C(F)(F)F (stereo unspecified)	32.3 µg/mL (≈ 107 µM)
COC(=O)c1c(C)[nH]c(C(=O)OCc2csc(CC(=O)Nc3ccccc3C)n2)c1C	7.4 µg/mL (≈ 16.8 µM)
Cc1cc(C)c(C)c(S(=O)(=O)NCC(=O)Nc2ccc(F)cc2)c1C	3.9 µg/mL (≈ 10.7 µM)
Cc1ccc(NC(=O)CN(C)CCOc2ccccc2)c([N+](=O)[O-])c1	< 0.2 µg/mL
Cc1cccc(C)c1NC(=O)C1CSC2(C)CCC(=O)N12 (stereo unspecified)	> 45.7 µg/mL
CC(=O)Nc1ccc(NC(=O)c2cc(=O)c3cc(C)c(C)cc3o2)cc1	0.6 µg/mL (≈ 1.71 µM)
c1ccc(Nc2nc(NCCN3CCOCC3)nc(Nc3ccccc3)n2)cc1	36 µg/mL (≈ 92 µM)
COc1ccc(/C=C/C(=O)NCCSCc2ccco2)cc1OC	41.9 µg/mL (≈ 121 µM)
COc1ccc(CCNC(=O)c2csc3c2CCCC3)cc1	2.1 µg/mL (≈ 6.66 µM)
CC(=O)Cn1ncc(N2CCOCC2)c(Cl)c1=O	> 40.8 µg/mL
